Type in all cases: cell-based
Test [1] has as its target T1, MAVS (Homo sapiens, UniProt Q7Z434).
T1 construct: endogenous full-length protein in 786-O cells, detected by anti-MAVS immunoblot
Briefly: competition with 4-OI-alk in affinity pull-down, immunoblot. The settings on record: covalent; 125 μM 4-OI for 30 min, then 125 μM 4-OI-alk for 4 h in intact 786-O cells.

Test [2] addresses T2, IKKβ (Homo sapiens, UniProt O14920).
T2 construct: gene IKBKB; endogenous full-length protein in 786-O cells, detected by anti-IKKβ immunoblot
T2 sequence (O14920 1-756): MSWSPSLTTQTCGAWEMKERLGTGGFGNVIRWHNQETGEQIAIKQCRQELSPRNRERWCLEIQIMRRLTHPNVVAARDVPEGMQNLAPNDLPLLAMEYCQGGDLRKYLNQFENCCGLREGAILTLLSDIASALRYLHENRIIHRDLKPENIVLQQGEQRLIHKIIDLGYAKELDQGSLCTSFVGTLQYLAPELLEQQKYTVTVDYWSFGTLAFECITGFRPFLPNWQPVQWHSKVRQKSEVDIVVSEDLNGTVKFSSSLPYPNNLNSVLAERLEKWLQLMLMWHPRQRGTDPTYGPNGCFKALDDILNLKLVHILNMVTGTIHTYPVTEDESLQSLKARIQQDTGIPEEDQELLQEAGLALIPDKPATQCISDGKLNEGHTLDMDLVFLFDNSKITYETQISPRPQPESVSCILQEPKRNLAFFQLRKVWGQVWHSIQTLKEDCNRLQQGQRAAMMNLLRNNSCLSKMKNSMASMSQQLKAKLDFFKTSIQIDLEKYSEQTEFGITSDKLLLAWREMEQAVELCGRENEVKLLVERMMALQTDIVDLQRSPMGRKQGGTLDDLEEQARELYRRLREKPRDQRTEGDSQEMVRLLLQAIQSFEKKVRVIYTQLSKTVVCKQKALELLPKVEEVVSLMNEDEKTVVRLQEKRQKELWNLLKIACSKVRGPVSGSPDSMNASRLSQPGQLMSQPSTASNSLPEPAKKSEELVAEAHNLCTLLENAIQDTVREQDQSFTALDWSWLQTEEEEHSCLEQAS
The test is described as above. The note with it: covalent; 125 μM 4-OI for 30 min, then 125 μM 4-OI-alk for 4 h in intact 786-O cells.

The next test deals with T3, JAK1 (Homo sapiens, UniProt P23458).
T3 construct: endogenous full-length protein in 786-O cells, detected by anti-Jak1 immunoblot
T3 sequence (P23458 whole entry): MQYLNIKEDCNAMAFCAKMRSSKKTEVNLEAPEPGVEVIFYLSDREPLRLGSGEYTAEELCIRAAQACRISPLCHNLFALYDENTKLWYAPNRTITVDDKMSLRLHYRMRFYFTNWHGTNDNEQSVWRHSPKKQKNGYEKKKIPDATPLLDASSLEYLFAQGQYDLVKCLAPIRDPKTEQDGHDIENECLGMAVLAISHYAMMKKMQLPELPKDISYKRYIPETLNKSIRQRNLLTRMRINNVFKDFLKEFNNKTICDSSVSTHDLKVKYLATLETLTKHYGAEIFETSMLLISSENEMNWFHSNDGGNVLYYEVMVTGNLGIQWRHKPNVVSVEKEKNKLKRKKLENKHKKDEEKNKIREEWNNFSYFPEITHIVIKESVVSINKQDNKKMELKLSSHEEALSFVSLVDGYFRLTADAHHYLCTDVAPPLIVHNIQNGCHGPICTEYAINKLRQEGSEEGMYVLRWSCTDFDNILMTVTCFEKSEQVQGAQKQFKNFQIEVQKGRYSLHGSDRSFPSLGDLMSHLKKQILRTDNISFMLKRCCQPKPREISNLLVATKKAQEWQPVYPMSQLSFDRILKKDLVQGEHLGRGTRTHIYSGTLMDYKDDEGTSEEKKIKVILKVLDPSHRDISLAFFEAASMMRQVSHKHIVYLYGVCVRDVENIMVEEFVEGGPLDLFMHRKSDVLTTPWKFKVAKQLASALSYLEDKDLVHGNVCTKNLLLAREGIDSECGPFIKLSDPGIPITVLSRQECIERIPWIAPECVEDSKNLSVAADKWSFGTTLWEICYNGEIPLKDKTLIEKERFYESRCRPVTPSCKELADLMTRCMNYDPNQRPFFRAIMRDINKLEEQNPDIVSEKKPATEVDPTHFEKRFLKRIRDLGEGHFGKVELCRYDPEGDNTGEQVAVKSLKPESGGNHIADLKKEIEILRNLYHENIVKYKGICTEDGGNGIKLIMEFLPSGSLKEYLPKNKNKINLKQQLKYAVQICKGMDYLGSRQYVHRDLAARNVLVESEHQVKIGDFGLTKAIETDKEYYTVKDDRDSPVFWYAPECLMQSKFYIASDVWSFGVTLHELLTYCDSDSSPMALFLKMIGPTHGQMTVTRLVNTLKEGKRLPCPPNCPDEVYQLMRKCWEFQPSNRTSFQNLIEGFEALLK
In words: alkyne probe labelling in cells, CuAAC to biotin azide, streptavidin pull-down, immunoblot. The note with it: covalent; 125 μM in intact 786-O cells.

Test [3] addresses T2, IKKβ. The test is described as above. The settings on record: covalent; 125 μM in intact 786-O cells.
For the next test, the target named is T4, Flag-MAVS (Homo sapiens, UniProt Q7Z434).
T4 construct: Flag-tagged MAVS expressed from plasmid in HEK293T cells
T4 sequence (Q7Z434 2-540): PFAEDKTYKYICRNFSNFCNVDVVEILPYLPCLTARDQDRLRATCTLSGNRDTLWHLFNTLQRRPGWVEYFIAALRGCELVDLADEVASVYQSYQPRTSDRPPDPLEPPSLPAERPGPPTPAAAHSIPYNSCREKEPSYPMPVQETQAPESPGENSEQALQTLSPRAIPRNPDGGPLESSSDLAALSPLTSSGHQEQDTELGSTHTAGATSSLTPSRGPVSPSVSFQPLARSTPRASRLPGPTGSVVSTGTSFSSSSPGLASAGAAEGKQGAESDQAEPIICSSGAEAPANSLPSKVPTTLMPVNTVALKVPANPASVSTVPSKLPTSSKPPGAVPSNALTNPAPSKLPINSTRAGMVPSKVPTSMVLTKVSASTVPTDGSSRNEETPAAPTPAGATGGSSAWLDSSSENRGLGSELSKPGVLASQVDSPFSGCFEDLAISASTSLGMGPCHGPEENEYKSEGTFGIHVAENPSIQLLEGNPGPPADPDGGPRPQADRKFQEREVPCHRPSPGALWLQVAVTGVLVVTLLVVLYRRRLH
Briefly: alkyne probe labelling in transfected cells, CuAAC to biotin azide, streptavidin pull-down, anti-Flag immunoblot. The note with it: covalent; 125 μM, 4 h in intact HEK293T cells. In general terms: A western blot detects proteins with antibodies after separation by electrophoresis.

Test [4] deals with T1, MAVS. Briefly: alkyne probe labelling in cells, CuAAC to biotin azide, streptavidin pull-down, immunoblot. The note with it: covalent; 125 μM, 4 or 24 h in intact 786-O cells.

T1 sequence (Q7Z434 2-540): as above

Consider `C=C(CC(=O)OCCCCCCCC)C(=O)O` [4-OI, 4-octyl itaconate], for which the “competition with 4-OI-alk in affinity pull-down, immunoblot” value was “non-alkyne-tagged 4-OI to compete with 4-OI-alk led to a reduced interaction between MAVS and 4-OI-alk” at MAVS [1]; “non-tagged 4-OI competed with 4-OI-alk and reduced the interaction between IKKβ and 4-OI-alk” on IKKβ [2].
Regarding `C#CCCCCCCOC(=O)CC(=C)C(=O)O` [4-OI-alk, 2-methylene-4-(oct-7-yn-1-yloxy)−4-oxobutanoic acid], the “alkyne probe labelling in cells, CuAAC to biotin azide, streptavidin pull-down,” value at JAK1 was “We confirmed the binding of 4-OI-alk to JAK1 in our cellular model”; on IKKβ [3], “We further validated the interaction between IKKβ and 4-OI-alk in cancer cells by pull-down”; on MAVS [4], “We observed an enrichment in 4-OI-alk labeling of MAVS, demonstrating the protein-drug interaction”. For the same compound, the “alkyne probe labelling in transfected cells, CuAAC to biotin azide, streptavidin” value on Flag-MAVS is on record as “partial reduction of 4-OI-alk labeling of MAVS C283A compared to MAVS wt”.
